Test results reported in patent US10765638B2, “Particle formulation with polycation complex” (Yale University, priority 2017, dated 2020).

Legend:
D54 cells [1] = assay: Cell cycle distribution by flow cytometry; format: cell-based
Experimental: (§1) Cell cycle distribution was determined following treatment with vehicle, radiation and/or 10 uM NGI-1. Cells were trypsinized and centrifuged, washed once with ice-cold PBS, fixed with ice-cold 70% ethanol and stored overnight at −20° C. After washing twice with PBS, they were incubated for 30 minutes at room temperature in 200 μL of Guava Cell Cycle Reagent (Guava Technologies). Cytofluorometric acquisitions were performed on a LSRII cytometer (BD Biosciences). First-line analysis was performed with FlowJo software, upon gating of the events characterized by normal forward and side scatter parameters and discrimination of doublets in a FSC-A vs. FSC-H bivariate plot. Approximately 50,000 cells were analyzed per experiment.

T98G cells [2] = assay: Cell cycle distribution by flow cytometry; format: cell-based
Experimental: as §1

H1975 = assay: Cell cycle distribution by flow cytometry; format: cell-based; conditions: NGI-1 for 24 h, printed 40% vs 60%, higher value taken as NGI-1
Experimental: (§2) For the assessment of cell cycle distribution, 1×10^6 cells were collected, washed once with ice-cold PBS and fixed in ice-cold 70% ethanol overnight at −20° C. Thereafter, cells were washed twice with PBS and incubated for 30 min at room temperature in 200 μL of Guava Cell Cycle Reagent (Guava Technologies). Cytofluorometric acquisitions were performed on a LSRII cytometer (BD Biosciences). First-line analysis was performed with Flow Jo software, upon gating of the events characterized by normal forward and side scatter parameters and discrimination of doublets in a FSC-A vs. FSC-H bivariate plot. Approximately 30,000 cells were analyzed per experiment, and the mean value was obtained from 3 independent assays.

HCC-827-GR cells = assay: Cell cycle distribution by flow cytometry; format: cell-based; conditions: NGI-1 for 24 h, printed 75% vs 45%
Experimental: as §2

PC9-GR2 = assay: Cell cycle distribution by flow cytometry; format: cell-based; conditions: NGI-1 for 24 h, printed 80% vs 60%
Experimental: as §2

H1975-OR cells = assay: Cell cycle distribution by flow cytometry; format: cell-based; conditions: NGI-1 for 24 h, printed 45% vs 75%, higher value taken as NGI-1
Experimental: as §2

PC9-GR1 = assay: Cell cycle distribution by flow cytometry; format: cell-based; conditions: NGI-1 for 24 h, printed 60% vs 40%
Experimental: as §2

AKT = assay: Radiation-induced AKT activation; format: cell-based
H3255 = conditions: Lopez-Sambrooks et al., Nat Chem Biol. 2016; cited from earlier work
[3] = system: non-transformed cell lines, primary human dermal fibroblasts, and neural progenitor cells; conditions: Lopez-Sambrooks 2016, Hafirassou 2017, Puschnik 2017; cited from earlier work
SKMG3 cells [4] = assay: Cell cycle distribution by flow cytometry; format: cell-based, human
Experimental: as §1

D54 cells [5] = assay: Phospho-γH2AX foci formation after radiation; format: cell-based
Experimental: (§3) To determine histone H2AX phosphorylation (γH2AX), cells were cultured on glass cover slips and pre-treated with either vehicle or NGI-1 for 48 hours followed by radiation treatment. Samples were fixed with 4% neutral-buffered formaldehyde, washed (0.1% triton in PBS for 30 minutes) and incubated for 1 hour with protein-blocking solution (PBS containing 10% normal goat-horse serum; Sigma-Aldrich, Saint Louis, Mich., US). Next, the slides were incubated with primary anti-phospho-histone γH2AX S139 (1:500, Millipore-Upstate, Billerica, Mass., US) followed by incubation with secondary antibody Alexa Fluor 555-conjugated goat anti-mouse IgG (1:750, Molecular probes/Invitrogen, Carlsbad, Calif., US), for 1 hour at room temperature. Nuclei were stained using DAPI containing vectashield mounting solution (Vector Labs). Confocal cellular images were captured with an inverted Zeiss LSM 510 Pascal laser confocal microscope (C. Zeiss, Jenna, Germany), using a 63/1.4 plan-apochromat objective. Five randomly selected fields s per slide were analyzed. Cells were counted using the ImageJ program, public domain Java image processing software.

T98G cells [6] = assay: Phospho-γH2AX foci formation after radiation; format: cell-based; conditions: 2 hours after 4 Gy, 10 μM NGI-1
Experimental: as §3

U251 cells = assay: Phospho-γH2AX foci formation after radiation; format: cell-based; conditions: 2 hours after 4 Gy, 10 μM NGI-1
Experimental: as §3

EGFR = biological target: T1, EGFR (Homo sapiens, UniProt P00533, DEL746-750); format: cell-based; conditions: HCC827-GR cells
T1 construct: endogenous in cells; host or cells: HCC827-GR NSCLC cells (MET amplified)
Experimental: Immunoprecipitation of EGFR was performed on whole cell lysate of intact HCC827 and HCC827-GR cell monolayers using Protein A magnetic beads (Cell Signaling) to isolate EGFR coupled to rabbit anti-EGFR (1:100) antibody from Cell Signaling (Danvers, Mass., USA). Equilibrated Protein A magnetic beads equilibrated with a whole cell lysate were used as negative controls for non-specific protein binding. […] The nitrocellulose-bound primary antibodies, were detected with anti-rabbit IgG horseradish peroxidase-linked antibody or anti-mouse IgG horseradish peroxidase-linked antibody (EMD Millipore; Temecula, Calif. USA), and were detected by the enhanced chemoluminescence staining ECL (GE Healthcare-Amersham Pharmacia, Buckinghamshire, U.K.).

SKMG3-CD8-EGFR cells = assay: Cell cycle distribution by flow cytometry; format: cell-based, human; conditions: 10 μM NGI-1, 4 Gy
Experimental: as §1
The CD8 cDNA was a gift from Paula Kavathas (Yale University). The CD8-EGFR was constructed according to a strategy that generated a constitutively active IGF-1R (24). The extracellular domain of CD8 was PCR amplified with a 5′ XbaI and 3′ SalI restriction site and cloned in-frame with the intracellular kinase domain of EGFR using the pDCB5-EGFR plasmid. SKMG3-CD8-EGFR cells were generated by Lipofectamine (Life Technologies) transfection of the plasmid followed by selection with 500 μg/ml G418. Expression of CD8-EGFR was validated by western blot analysis of the wild type and CD8-EGFR.

SKMG3 cells [7] = assay: Radiation clonogenic survival assay; format: cell-based, human
Experimental: Radiation (XRT) doses of either 0, 2, 4, or 6 Gy were delivered with a Precision X-ray 320-kV orthovoltage unit at a dose rate of 2 Gy/45 seconds (PXI X-Ray Systems). Twenty-four hours following XRT cells were washed, trypsinized, and re-plated in triplicate wells to determine clonogenic survival. […] Growth rates were determined by CellTiter 96 Non-Radioactive Cell Proliferation Assay (Promega; Madison, Wis., USA) according to the manufacturer's directions. For each experiment one thousand cells were seeded in triplicate wells in 96-wells plates. The following day, cell cultures were treated with NGI-1 (1 μM), Temozolomide (TMZ, 10 μM), Etoposide (VP-16, 0.1 μM) or combinations for 5 days. Absorbance at 540 nm was measured using the spectrophotometric reading (BioTek Synergy 2; Winooski, Vt. USA).

Cc1cnc(NC(=O)c2cc(S(=O)(=O)N(C)C)ccc2N2CCCC2)s1 [NGI-1, 5-(dimethylsulfamoyl)-N-(5-methyl-1,3-thiazol-2-yl)-2-(pyrrolidin-1-yl)benzamide]
cells in G1 (G1 arrest) (D54 cells [1]; 48 hours of 10 uM NGI-1, control 75%): 83% | cells in G1 six hours after 4 Gy (D54 cells [1]; NGI-1 + 4 Gy, 66% without NGI-1): 77% | G1 arrest (T98G cells [2]; 48 hours of NGI-1): no arrest | G1 arrest six hours after 4 Gy (T98G cells [2]; NGI-1 + 4 Gy): not for either the T98G or U251 cells | cells in G1 (G1 arrest) (H1975): 60% | cells in G1 (G1 arrest) (HCC-827-GR cells): 75% | cells in G1 (G1 arrest) (PC9-GR2): 80% | cells in G1 (G1 arrest) (H1975-OR cells): 75% | cells in G1 (G1 arrest) (PC9-GR1): 60% | radiation-induced activation of AKT (AKT; CD8-EGFR expressing SKMG3 cells): not in the CD8-EGFR expressing SKMG3 cells | AKT activation (AKT; T98G cells): does not block AKT activation | radiation-induced activation of AKT (AKT; parental SKMG3 cells): blocks | H3255 proliferation (H3255): significantly inhibits | toxicity [3]: no significant toxicity | cells in G1 (G1 arrest) (SKMG3 cells [4]; SKMG3, 48 hours of 10 uM NGI-1, control 69%): 78% | cells in G1 six hours after 4 Gy (SKMG3 cells [4]; SKMG-3, NGI-1 + 4 Gy, 56% without NGI-1): 72% | increase of phospho-γH2AX foci formation, time course (D54 cells [5]; 4 Gy + 10 μM NGI-1, radiation alone 6.4-fold): 8.6 fold | increase of phospho-γH2AX foci formation compared to radiation alone (factor) (D54 cells [5]; 2 hours after 4 Gy, 10 μM NGI-1): 1.3 | enhancement of phospho-γH2AX foci formation (T98G cells [6]): no enhancement | enhancement of phospho-γH2AX foci formation (U251 cells): no enhancement | EGFR phosphorylation (EGFR): significantly reduced | G1 cell cycle arrest caused by NGI-1, alone and after exposure to radiation (SKMG3-CD8-EGFR cells): eliminated the G1 cell cycle arrest | dose enhancement factor (DEF) at a surviving fraction of 0.4 (SKMG3 cells [7]; 10 μM NGI-1): 1.2 | survival fraction at 2 Gy (SF2Gy) (SKMG3 cells [7]; 10 μM NGI-1 48 hours before radiation, 87% without NGI-1): 77%
